How the values were obtained:
[1] = system: Thoracic aortic segment (smooth muscle cells); test: Relaxation of phenylephrine pre-contracted, endothelium-removed thoracic aortic rings; parameters: species or system guinea pig; details: 10 μM added 2 times, pre-contracted with 10 μM phenylephrine, 5 minutes after additions
Text: Thoracic aortic segments were isolated from a guinea pig as already indicated by Vandier et al, (Adv Physiol Educ. 2002 December; 26(1-4):195-203). Briefly, thoracic aortic segments were isolated, cleaned of adventitia, and cut into rings. The endothelium was removed and aortic rings, were mounted on stainless steel hooks and suspended in a 30-ml jacketed tissue bath with physiological salt solution (in mm): 120 NaCl, 5.4 KCl, 1 MgCl2, 0.6 NaH2PO4, 25 NaHCO3, 5.6 glucose, 5 Na-pyruvate, and 2 CaCl2, bubbled with 95% 02-5% CO2 maintained at 37° C. and aerated with 95% 02-5% CO2. Solutions to be tested were directly added in the jacketed tissue bath generated allowed one to get the desired concentration around the aortic rings. Isometric force generation was recorded with Grass transducers (FT03; Quincy, MA) connected to an amplifier (gain 500) and analogic to digital converter (1 Hz) connected to a computer.
Thoracic aortic segment was pre-contracted using 10 μM phenylephrine. After the steady state was reached 10 μM of compound 002 was added, two successive times, directly in the bath solution containing a physiological salt solution, maintained at 37° C. and aerated with 95% 02-5% CO2

SK3 channels = target: T1, SK3 channels (Homo sapiens, UniProt Q9UGI6); test: Whole-cell patch-clamp of SK3 currents in HEK293T cells expressing SK3 channels; type: cell-based; details: 10 μM; for time after addition at which the effect on SK3 current was reached / time after application at which the maximum of the activation of SK3 current was reached: currents at 0 mV
T1 construct: expressed in transfected cells
Procedure: HEK293T were obtained from American Type Culture Collection (ATCC) and cultured in Dulbecco's Modified Eagle's Medium, supplemented with 10% (v:v) fetal bovine serum (Lonza, France), 1 mM pyruvate sodium (Sigma-Aldrich, France), and 1% non-essential amino acid (Sigma-Aldrich, France). Cells were grown in a humidified atmosphere at 37° C. and with 95% air and 5% CO2. HEK293T cells were transduced as previously described to obtain stable expression of homotetramer SK3 channels.
Experiments were performed in the whole-cell configuration of the patch-clamp technique. The patch pipettes were filled with solution contained 145 mM KCl, 1 mM MgCl2, 1 mM Mg-ATP, 0.7 mM CaCl2), 1 mM EGTA and 10 mM HEPES (PCa 6). pH was adjusted to 7.2 with KOH. The bath solution contained 140 mM NaCl, 4 mM KCl, 2 mM CaCl2), 1 mM MgCl2, 10 mM HEPES, 0.33 mM NaH2PO4, and 11.5 mM D-glucose. pH was adjusted to 7.4 with NaOH. Patch-clamp experiments and data analyses were conducted as previously described (Girault, A. et al. Current Cancer Drug Target, 2011, 11, 1111-1125). […] The amplitude of the apamin-sensitive current was obtained by subtraction of the amplitude of the current before and after application of 100 nmol/L apamin (a specific SKCa blocker).
The capacity of the compounds 001-006 (Table 2, FIGS. 1 and 2) to modulate the activity of SK3 currents was measured using the whole cell configuration of the patch-clamp technique. For these acute tests, a concentration of 10 μM for each of the compounds was used.

| Substance | relaxation effect on pre-contracted thoracic aortic segment [1] | effect on SK3 channel in words (SK3 channels) | time after addition at which the effect on SK3 current was reached (SK3 channels) [s] | time after application at which the maximum of the activation of SK3 current was reached (SK3 channels) [min] | SK3 current (change after application of compound) (SK3 channels; acute, HEK293T expressing SK3, currents analyzed at 0 mV, pCa 6, mean ± SEM) |
| --- | --- | --- | --- | --- | --- |
| Lac(OH)7-O-2-methoxy-3-S-heneicosane [compound 002] | dose-dependent relaxation | strong activator of SK3 channel | 30 | 5 |  |
| Lac(OH)7-O-2-ethoxy-4-S-heneicosane [compound 006] |  |  | 30 |  |  |
| Lac(OH)7-O-2-methoxy-3-S-hexadecane [compound 001] |  | abolished the activating effect |  |  | −9.7% ± 5.2 |
| Lac(OH)7-O-2-methoxy-4-S-heneicosane [compound 003] |  | kept its activation capacity |  | 5 |  |

Reference: patent publication US12729218B2, “Glycolipids and use thereof as SK3 ion channel modulators” (priority 2020, dated 2026)
